Columns and labels:
[1] = biological target: T1, Receptor tyrosine-protein kinase erbB-2 (Homo sapiens, UniProt P04626); test: Inhibition of wild type human GST-tagged HER2 (676 to end residues) expressed in baculovirus infected Sf9 cells incubated for 30 mins in presence of ATP by HTRF analysis
[2] = biological target: Epidermal growth factor receptor (Homo sapiens, UniProt P00533); test: Inhibition of wild type human N-terminal GST tagged EGFR (669 to 1210 residues) expressed in Sf21 insect cells incubated for 30 mins in presence of ATP by HTRF analysis
Epidermal growth factor receptor, sequence (P00533 whole entry, the tested form may be a part): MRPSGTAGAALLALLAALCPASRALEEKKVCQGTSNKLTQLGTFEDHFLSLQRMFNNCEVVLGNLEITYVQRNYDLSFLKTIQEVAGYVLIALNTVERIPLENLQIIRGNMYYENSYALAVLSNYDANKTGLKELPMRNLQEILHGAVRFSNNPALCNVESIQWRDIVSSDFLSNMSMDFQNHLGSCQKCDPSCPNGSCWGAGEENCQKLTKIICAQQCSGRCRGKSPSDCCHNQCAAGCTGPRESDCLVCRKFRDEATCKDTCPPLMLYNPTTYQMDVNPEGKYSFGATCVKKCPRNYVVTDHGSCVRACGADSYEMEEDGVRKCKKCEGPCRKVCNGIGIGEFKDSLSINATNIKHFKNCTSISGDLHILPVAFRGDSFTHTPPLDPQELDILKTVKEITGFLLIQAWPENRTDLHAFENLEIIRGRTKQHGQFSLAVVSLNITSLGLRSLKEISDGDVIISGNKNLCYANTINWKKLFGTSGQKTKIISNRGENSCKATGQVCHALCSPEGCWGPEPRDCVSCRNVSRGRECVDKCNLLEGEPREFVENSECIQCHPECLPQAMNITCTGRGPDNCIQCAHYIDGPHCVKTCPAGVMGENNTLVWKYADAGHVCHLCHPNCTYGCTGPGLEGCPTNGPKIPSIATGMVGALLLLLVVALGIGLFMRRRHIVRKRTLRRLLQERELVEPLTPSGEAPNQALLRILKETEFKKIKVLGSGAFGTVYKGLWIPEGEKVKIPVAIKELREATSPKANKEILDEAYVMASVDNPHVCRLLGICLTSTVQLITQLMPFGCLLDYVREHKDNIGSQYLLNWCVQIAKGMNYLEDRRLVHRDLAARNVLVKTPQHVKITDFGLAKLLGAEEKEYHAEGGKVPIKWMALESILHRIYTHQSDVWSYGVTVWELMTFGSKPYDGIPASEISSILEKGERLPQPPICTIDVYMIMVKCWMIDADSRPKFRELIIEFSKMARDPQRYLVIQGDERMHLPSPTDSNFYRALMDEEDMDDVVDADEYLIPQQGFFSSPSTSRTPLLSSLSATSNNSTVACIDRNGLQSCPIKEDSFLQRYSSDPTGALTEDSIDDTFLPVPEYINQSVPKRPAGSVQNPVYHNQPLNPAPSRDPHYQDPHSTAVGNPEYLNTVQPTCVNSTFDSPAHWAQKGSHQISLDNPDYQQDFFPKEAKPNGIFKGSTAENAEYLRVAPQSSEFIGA

[3] = system: BT-474; test: Antiproliferative activity against human BT-474 cells assessed as inhibition of cell growth incubated for 72 hrs by Celltiter-Glo assay; format: functional, cell-based; conditions: BT-474, 72 h
[4] = Metabolic stability in human liver microsomes assessed as half life at 1 uM preincubated for 5 mins followed by NADPH addition by LC-MS/MS analysis; format: ADME, Microsome
[5] = Metabolic stability in human liver microsomes assessed as intrinsic clearance at 1 uM preincubated for 5 mins followed by NADPH addition by LC-MS/MS analysis; format: ADME, Microsome; conditions: read-out: CLH
[6] = system: NCI-N87; test: Antiproliferative activity against human NCI-N87 cells assessed as inhibition of cell growth incubated for 72 hrs by Celltiter-Glo assay; format: functional, cell-based; conditions: NCI-N87, 72 h
[7] = system: NCI-H441; test: Antiproliferative activity against human NCI-H441 cells assessed as cell growth inhibition incubated for 72 hrs by Celltiter-Glo assay; format: functional, cell-based; conditions: NCI-H441, 72 h
[8] = system: SK-BR-3; test: Antiproliferative activity against human SK-BR-3 cells overexpressing wild type HER2 assessed as cell growth inhibition incubated for 72 hrs by Celltiter-Glo assay; format: functional, cell-based; conditions: SK-BR-3, 72 h
[9] = system: MDA-MB-468; test: Antiproliferative activity against human MDA-MB-468 cells overexpressing wild type EGFR assessed as cell growth inhibition incubated for 72 hrs by Celltiter-Glo assay; format: functional, cell-based; conditions: MDA-MB-468, 72 h
[10] = system: ES-2; test: Antiproliferative activity against human ES2 cells assessed as cell growth inhibition incubated for 72 hrs by Celltiter-Glo assay; format: functional, cell-based; conditions: ES-2, 72 h
[11] = system: MFE-280; test: Antiproliferative activity against human MFE-280 cells assessed as cell growth inhibition incubated for 72 hrs by Celltiter-Glo assay; format: functional, cell-based; conditions: MFE-280, 72 h
[12] = system: NUGC-4; test: Antiproliferative activity against human NUGC-4 cells assessed as cell growth inhibition incubated for 72 hrs by Celltiter-Glo assay; format: functional, cell-based; conditions: NUGC-4, 72 h
[13] = system: COLO-678; test: Antiproliferative activity against human COLO-678 cells assessed as cell growth inhibition incubated for 72 hrs by Celltiter-Glo assay; format: functional, cell-based; conditions: COLO-678, 72 h
[14] = Antiproliferative activity against human KM12-Luc cells assessed as cell growth inhibition incubated for 72 hrs by Celltiter-Glo assay; format: functional, cell-based
[15] = biological target: Receptor tyrosine-protein kinase erbB-2 (Homo sapiens, UniProt P04626, D769H); test: Inhibition of HER2 D769H mutant (unknown origin) incubated for 120 mins in presence of 33P-ATP by P81 ion exchange cellulose chromatography
Receptor tyrosine-protein kinase erbB-2 (Homo sapiens, UniProt P04626, D769H), sequence (P04626 23-1255 D769H limits assumed): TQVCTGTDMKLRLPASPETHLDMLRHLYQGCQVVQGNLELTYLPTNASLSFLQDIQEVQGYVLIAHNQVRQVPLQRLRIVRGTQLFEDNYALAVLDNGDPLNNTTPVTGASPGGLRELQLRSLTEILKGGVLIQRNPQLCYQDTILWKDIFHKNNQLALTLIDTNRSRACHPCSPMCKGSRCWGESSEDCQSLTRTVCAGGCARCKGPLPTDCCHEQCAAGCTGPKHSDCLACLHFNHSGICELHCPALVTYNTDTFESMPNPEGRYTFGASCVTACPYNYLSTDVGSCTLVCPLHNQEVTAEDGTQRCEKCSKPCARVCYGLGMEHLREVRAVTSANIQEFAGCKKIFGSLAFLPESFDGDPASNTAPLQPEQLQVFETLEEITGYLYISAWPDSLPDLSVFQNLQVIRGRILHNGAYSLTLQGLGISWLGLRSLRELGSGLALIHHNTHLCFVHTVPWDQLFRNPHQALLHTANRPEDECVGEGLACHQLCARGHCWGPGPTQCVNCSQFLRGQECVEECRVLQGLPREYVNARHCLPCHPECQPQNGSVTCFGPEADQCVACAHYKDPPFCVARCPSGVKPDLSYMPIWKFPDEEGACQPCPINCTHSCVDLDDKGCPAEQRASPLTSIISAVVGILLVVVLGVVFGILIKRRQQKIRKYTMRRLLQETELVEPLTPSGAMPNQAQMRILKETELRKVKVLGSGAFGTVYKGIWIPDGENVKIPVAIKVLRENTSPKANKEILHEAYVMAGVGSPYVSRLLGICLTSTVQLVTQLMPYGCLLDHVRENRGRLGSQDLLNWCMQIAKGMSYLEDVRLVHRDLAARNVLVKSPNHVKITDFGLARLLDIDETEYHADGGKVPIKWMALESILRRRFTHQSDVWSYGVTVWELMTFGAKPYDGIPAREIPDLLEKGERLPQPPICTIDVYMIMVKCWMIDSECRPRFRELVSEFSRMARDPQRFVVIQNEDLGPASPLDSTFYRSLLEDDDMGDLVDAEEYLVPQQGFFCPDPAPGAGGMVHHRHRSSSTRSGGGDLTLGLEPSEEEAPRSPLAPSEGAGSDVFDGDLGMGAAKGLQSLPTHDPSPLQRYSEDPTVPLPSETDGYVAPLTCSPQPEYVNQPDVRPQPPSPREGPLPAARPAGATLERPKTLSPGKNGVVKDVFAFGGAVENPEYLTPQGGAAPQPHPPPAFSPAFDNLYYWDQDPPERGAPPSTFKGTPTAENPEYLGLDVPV

[16] = biological target: Receptor tyrosine-protein kinase erbB-2 (Homo sapiens, UniProt P04626, D769Y); test: Inhibition of HER2 D769Y mutant (unknown origin) incubated for 120 mins in presence of 33P-ATP by P81 ion exchange cellulose chromatography
Receptor tyrosine-protein kinase erbB-2 (Homo sapiens, UniProt P04626, D769Y), sequence (P04626 23-1255 D769Y limits assumed): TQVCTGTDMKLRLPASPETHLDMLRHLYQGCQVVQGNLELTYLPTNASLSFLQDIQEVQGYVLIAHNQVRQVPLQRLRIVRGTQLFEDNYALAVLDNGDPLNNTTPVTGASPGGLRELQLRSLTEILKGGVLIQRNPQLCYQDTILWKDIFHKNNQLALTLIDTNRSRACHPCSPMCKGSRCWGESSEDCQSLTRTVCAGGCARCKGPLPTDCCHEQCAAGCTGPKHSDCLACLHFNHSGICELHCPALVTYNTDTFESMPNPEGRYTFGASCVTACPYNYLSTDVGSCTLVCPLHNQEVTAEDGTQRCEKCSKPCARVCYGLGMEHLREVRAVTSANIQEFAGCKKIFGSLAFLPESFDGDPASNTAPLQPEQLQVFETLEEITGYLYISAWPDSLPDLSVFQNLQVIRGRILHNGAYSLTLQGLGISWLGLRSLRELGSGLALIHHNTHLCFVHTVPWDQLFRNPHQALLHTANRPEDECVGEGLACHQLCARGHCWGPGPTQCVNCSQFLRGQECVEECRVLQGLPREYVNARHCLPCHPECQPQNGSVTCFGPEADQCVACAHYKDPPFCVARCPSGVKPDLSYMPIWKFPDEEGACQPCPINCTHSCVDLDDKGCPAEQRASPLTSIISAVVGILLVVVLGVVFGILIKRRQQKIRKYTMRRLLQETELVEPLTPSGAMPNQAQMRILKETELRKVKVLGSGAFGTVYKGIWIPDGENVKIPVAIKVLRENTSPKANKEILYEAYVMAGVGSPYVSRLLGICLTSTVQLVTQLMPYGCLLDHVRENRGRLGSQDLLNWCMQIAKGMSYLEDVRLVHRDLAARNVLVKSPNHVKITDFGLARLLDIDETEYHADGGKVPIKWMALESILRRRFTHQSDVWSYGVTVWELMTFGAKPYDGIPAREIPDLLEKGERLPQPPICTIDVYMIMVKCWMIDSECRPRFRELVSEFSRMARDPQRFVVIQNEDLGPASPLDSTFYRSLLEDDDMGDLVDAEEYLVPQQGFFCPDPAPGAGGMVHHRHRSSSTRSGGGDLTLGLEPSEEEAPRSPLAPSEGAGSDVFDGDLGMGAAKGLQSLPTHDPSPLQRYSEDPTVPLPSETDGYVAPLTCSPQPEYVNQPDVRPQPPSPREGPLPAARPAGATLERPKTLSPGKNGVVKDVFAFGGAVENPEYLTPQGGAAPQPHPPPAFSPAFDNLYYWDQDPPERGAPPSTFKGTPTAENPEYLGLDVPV

[17] = biological target: Receptor tyrosine-protein kinase erbB-2 (Homo sapiens, UniProt P04626, V777L); test: Inhibition of HER2 V777L mutant (unknown origin) incubated for 120 mins in presence of 33P-ATP by P81 ion exchange cellulose chromatography
[18] = biological target: Receptor tyrosine-protein kinase erbB-2 (Homo sapiens, UniProt P04626, R896C); test: Inhibition of HER2 R896C mutant (unknown origin) incubated for 120 mins in presence of 33P-ATP by P81 ion exchange cellulose chromatography
[19] = system: BaF3; test: Antiproliferative activity against mouse BaF3 cells harbouring HER2 […] mutant assessed as inhibition of cell growth incubated for 72 hrs by Celltiter-Glo assay; format: functional, cell-based; conditions: BaF3, 72 h
[20] = system: NCI-N87; test: Antitumor activity against human NCI-N87 cells xenografted in BALB/c nude mouse assessed as tumor growth inhibition at 20 mg/kg/day, po administered once daily for 21 days relative to control; format: functional; conditions: NCI-N87, 504 h, time 21 day, read-out: TGI
[21] = system: BT-474; test: Antitumor activity against human BT-474 cells xenografted in BALB/c nude mouse assessed as tumor growth inhibition at 20 mg/kg/day, po administered once daily for 21 days relative to control; format: functional; conditions: BT-474, 504 h, time 21 day, read-out: TGI
[22] = system: BaF3; test: Antitumor activity against mouse BaF3 cells harbouring HER2 A775_G776insYVMA mutant xenografted in BALB/c nude mouse assessed as tumor growth inhibition at 20 mg/kg, po qd measured for 13 days relative to control; format: functional; conditions: BaF3, 312 h, time 13 day, read-out: TGI
[23] = biological target: T1, Receptor tyrosine-protein kinase erbB-2; test: Inhibition of HER2 (unknown origin)

T1 sequence (P04626 whole entry, the tested form may be a part): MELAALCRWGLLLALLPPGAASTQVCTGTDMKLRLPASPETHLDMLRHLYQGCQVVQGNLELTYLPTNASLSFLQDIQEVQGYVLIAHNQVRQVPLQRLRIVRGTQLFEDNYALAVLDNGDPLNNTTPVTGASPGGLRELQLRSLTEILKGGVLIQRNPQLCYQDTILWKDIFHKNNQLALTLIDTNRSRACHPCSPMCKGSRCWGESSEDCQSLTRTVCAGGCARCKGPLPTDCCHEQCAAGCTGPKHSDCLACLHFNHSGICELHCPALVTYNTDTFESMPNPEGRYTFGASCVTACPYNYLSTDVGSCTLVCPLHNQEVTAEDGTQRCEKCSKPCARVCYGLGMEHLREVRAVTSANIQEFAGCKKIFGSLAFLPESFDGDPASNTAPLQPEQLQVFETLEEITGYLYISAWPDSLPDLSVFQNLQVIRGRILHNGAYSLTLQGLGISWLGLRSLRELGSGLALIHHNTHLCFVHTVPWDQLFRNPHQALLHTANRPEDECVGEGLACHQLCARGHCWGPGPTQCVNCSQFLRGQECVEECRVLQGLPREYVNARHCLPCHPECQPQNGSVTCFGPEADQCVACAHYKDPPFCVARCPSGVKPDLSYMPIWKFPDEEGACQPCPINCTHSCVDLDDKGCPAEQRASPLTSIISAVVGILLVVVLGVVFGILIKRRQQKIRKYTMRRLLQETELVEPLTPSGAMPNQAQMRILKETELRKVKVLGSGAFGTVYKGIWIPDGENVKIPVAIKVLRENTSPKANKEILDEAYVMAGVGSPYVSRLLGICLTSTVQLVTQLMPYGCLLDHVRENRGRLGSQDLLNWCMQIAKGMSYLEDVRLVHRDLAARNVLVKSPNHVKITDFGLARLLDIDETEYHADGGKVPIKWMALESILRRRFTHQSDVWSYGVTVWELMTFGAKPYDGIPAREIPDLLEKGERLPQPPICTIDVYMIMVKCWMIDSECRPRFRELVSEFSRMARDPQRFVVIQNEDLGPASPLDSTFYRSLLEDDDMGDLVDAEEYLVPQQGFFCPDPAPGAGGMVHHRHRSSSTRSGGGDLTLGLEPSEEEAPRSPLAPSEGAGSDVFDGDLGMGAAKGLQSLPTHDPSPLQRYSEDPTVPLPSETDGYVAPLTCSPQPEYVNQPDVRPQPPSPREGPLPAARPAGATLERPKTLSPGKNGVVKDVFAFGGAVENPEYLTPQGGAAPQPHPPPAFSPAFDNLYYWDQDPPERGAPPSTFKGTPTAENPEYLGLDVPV

Row | Compound | IC50 [1] [nM] | IC50 [2] [nM] | IC50 [3] [nM] | IC50 [6] [nM] | other results
1 | CCOc1cc2ncnc(Nc3ccc(Oc4cc5nncn5cn4)c(C)c3)c2cc1NC(=O)/C(F)=C\[C@H]1CCCN1C | 7.3 | 86.3 | 3.36 | – | half-life at 1 µM [4]: 0.954 h; microsomal CLint at 1 µM [5]: 24.2 µL/min/mg
2 | Cc1cc(Nc2ncnc3cc(O)c(NC(=O)/C=C/[C@H]4CCCN4C)cc23)ccc1Oc1ccn2ccnc2c1 | 1.7 | 2.31 | 4.63 | 4.55 | –
3 | Cc1cc(Nc2ncnc3cc(O)c(NC(=O)/C=C/[C@H]4CCCN4C)cc23)ccc1Oc1ccc2nccn2c1 | 6.42 | 2.32 | 5.22 | 4.08 | –
4 | COCC(=O)NC/C=C/c1ccc2ncc(C#N)c(Nc3ccc(Oc4cc5nncn5cn4)c(C)c3)c2c1 | – | 1830 | 369 | 441 | –
5 | Cc1cc(Nc2c(C#N)cnc3ccc(NC(=O)/C=C/CN(C)C)cc23)ccc1Oc1cc2nncn2cn1 | 62.3 | 20.7 | 14.9 | 19.2 | –
6 | Cc1cc(Nc2ncnc3cc(O)c(NC(=O)/C=C/[C@H]4CCCN4C)cc23)ccc1Oc1cnc2ccnn2c1 | 2.41 | 1.03 | 3.11 | 1.9 | –
7 | CCOc1cc2ncc(C#N)c(Nc3ccc(OCc4ccccn4)c(Cl)c3)c2cc1NC(=O)/C=C/[C@H]1CCCN1C [PYROTINIB] | 9.07 | – | 3.97 | 0.85 | IC50 [7]: 1890 nM; IC50 [8]: 14 nM; IC50 [9]: 659 nM; IC50 [10]: 778 nM; IC50 [11]: 1560 nM; IC50 [12]: 60.8 nM; IC50 [13]: 1840 nM; IC50 [14]: 1690 nM; IC50 [15]: 6.65 nM; IC50 [16]: 57.4 nM; IC50 [17]: 3.91 nM; IC50 [18]: 2.4 nM; IC50 [19]: 15 nM; inhibition in vivo at 20 mg/kg/day [20]: 113%; inhibition in vivo at 20 mg/kg/day [21]: 118%; inhibition in vivo at 20 mg/kg [22]: 55%; IC50 [23]: 4.43 nM
8 | Cc1cc(Nc2c(C#N)cnc3ccc(NC(=O)/C=C/[C@H]4CCCN4C)cc23)ccc1Oc1cc2nncn2cn1 | 10.8 | 3.13 | 7.44 | 6.7 | –
9 | Cc1cc(Nc2ncnc3cc(O)c(NC(=O)/C=C/[C@H]4CCCN4C)cc23)ccc1Oc1cnn2cnnc2c1 | 16 | 11.8 | 20.8 | 28.3 | –
10 | CCOc1cc2ncnc(Nc3ccc(Oc4cc5nncn5cn4)c(C)c3)c2cc1NC(=O)/C(F)=C/[C@@H]1CCCN1C | 3.38 | 32.1 | 2.65 | 1.55 | half-life at 1 µM [4]: 1.37 h; microsomal CLint at 1 µM [5]: 16.9 µL/min/mg
11 | CCOc1cc2ncc(C#N)c(Nc3ccc(OCc4ccccn4)c(Cl)c3)c2cc1NC(=O)/C=C/CN(C)C [NERATINIB] | – | – | 2.06 | 0.64 | IC50 [7]: 1280 nM; IC50 [8]: 10.3 nM; IC50 [9]: 406 nM; IC50 [10]: 788 nM; IC50 [11]: 1290 nM; IC50 [12]: 38.1 nM; IC50 [13]: 694 nM; IC50 [14]: 1730 nM; inhibition in vivo at 20 mg/kg/day [20]: 112%; inhibition in vivo at 20 mg/kg/day [21]: 119%; inhibition in vivo at 20 mg/kg [22]: 56%

Source: ChEMBL document CHEMBL5154811, “Discovery of SPH5030, a Selective, Potent, and Irreversible Tyrosine Kinase Inhibitor for HER2-Amplified and HER2-Mutant Cancer Treatment” (J Med Chem, 2022)
